Source: patent publication US20080306028A1, “Erianin Salts, Their Preparation Methods and Pharmaceutical Compositions Containing the Same” (priority 2005, published 2008)
Where two headings read alike, the source gives them in different places.

How the values were obtained:
solubility in water = assay type: physicochemical; conditions: product of example 1
Experimental: As the water-solubility of Erianin is low, the solubility in water being just <1 mg/ml, its preparation performance and clinical application are limited, so it is necessary to study the salts that can improve its water-solubility. At present, there is not any literature on the salts of Erianin and it's preparing process.
Cooling the crude acyl chloride in ice bath, adding sodium hydroxide solution (2 mol/L) while stirring till the PH value of the mixture is between 8˜10, stirring for 8 hours at 50° C.˜80° C., filtering to remove the insoluble substance, decompressing to evaporate most of the solvent, cooling for the white solid to be separated, which is the crude disodium phosphate of Erianin; Dissolving the crude product with ethanol while heated, filtering to remove the insoluble solid while hot, and cooling the filtrate for separated crystal as pure disodium phosphate of Erianin (6.0 g), a white crystal product with a yield of 86% m.p. 266-269° C., (splitting), dissolubility in water: 200 mg/ml.

Kunming mice = test: LD50 determination of disodium phosphate of Erianin; assay type: in vivo; conditions: for deaths, death rate in total: 10 mice
Experimental: Experimental animal: Kunming mice, provided by Shanghai Slac Laboratory Animal Co., Ltd., weight being between 18˜22 g, half and half of female and male.
Reagent: 0.9% NaCl, disodium phosphate of Erianin (AP), provided by Zhejiang Cell Biomedical Research Co., Ltd., which is prepared by the process above, bitter acid.
(1) Experimental animal: Kunming mice, set up in 7 groups, 10 mice every group and half and half of female and male. Marked by bitter acid.
(2) In every group, administering by vena caudalis injection according to body weight of 1300 mg/kg, 1250 mg/kg, 1200 mg/kg, 1150 mg/kg, 1100 mg/kg, 1050 mg/kg, 1000 mg/kg.
(3) Observing at 0.25 h, 0.5 h, 1 h, 2 h, 4 h, 24 h respectively after administration and recording the death rate; then observing once every day and recording the death rate (table 1) for 14 days; putting the mice still alive to death on the 15th day and giving pathological anatomy.

S180 tumor = conditions: for Weight 10 d: body weight day 10; for Tumor weight / rate of tumor inhibition: day 10; for Weight 0 d: body weight day 0
Source text: Samples: disodium phosphate of Erianin (AP, prepared by the process of example 1) prepared the concentration needed with physiologic saline.
Control medicine: cyclophosphamide for injection (CTX), Shanghai Hualian Pharmaceutical Co., Ltd, batch number: 020806. dissolved with physiologic saline for use.
Fifty Kunming mice, female, weight: […], provided by the animal house in Shanghai Institute of Pharmaceutical Industry.
Two S180 ascites tumor mice, provided by the animal house in Shanghai Institute of Pharmaceutical Industry.
Drawing ascites under aseptic condition from S180 ascites tumor mice, counting the cells, diluting to 1-2×10^7/ml with physiologic saline, giving subcutaneous inoculation in the armpit of the mice with 0.2 ml each, randomly dividing the mice equally into five groups the next day, ten in each group.
Dosage for administration (mg/kg./d): AP 25 mg/kg, 75 mg/kg, 225 mg/kg
Means of administration: intravenous injection
The control medicine, cyclophosphamide, administered by intravenous injection, the dosage being 30 mg/kg×9d.
And setting up blank control group.
Administering medicine to the mice by weight the next day of inoculation, […] 0.5 ml/20 g for 9 days, by weight, and putting them to death on the tenth day after inoculation, weighing the tumor and calculating the rate of tumor inhibition.
Assessing the result according to the following formula: […]

[1] = background statement; cited from earlier work
liver cancer of mouse = conditions: cited from earlier work
[2] = system: human leukemia HL-60 cells; conditions: cited from earlier work
tumor cell strain K256 = conditions: among dihydrobibenzyls and phenanthrenes in Dendrobium chrysotoxum; cited from earlier work

Compound: 3,4,5,4′-tetramethoxyl diphenylethane-3′-O-disodic phosphate [AP]
- dissolubility in water (solubility in water): 200 mg/mL
- deaths, death rate in total (Kunming mice; 1000 mg/kg i.v.): 0
- deaths, death rate in total (Kunming mice; 1050 mg/kg i.v.): 1
- deaths (Kunming mice; 1050 mg/kg i.v., day 1): 1
- deaths, death rate in total (Kunming mice; 1100 mg/kg i.v.): 3
- deaths (Kunming mice; 1100 mg/kg i.v., day 1): 3
- deaths, death rate in total (Kunming mice; 1150 mg/kg i.v.): 1
- deaths (Kunming mice; 1150 mg/kg i.v., day 1): 1
- deaths, death rate in total (Kunming mice; 1200 mg/kg i.v.): 3
- deaths (Kunming mice; 1200 mg/kg i.v., day 5): 1
- deaths (Kunming mice; 1200 mg/kg i.v., day 6): 1
- deaths (Kunming mice; 1200 mg/kg i.v., hours 0-4): 1
- deaths, death rate in total (Kunming mice; 1250 mg/kg i.v.): 6
- deaths (Kunming mice; 1250 mg/kg i.v., day 1): 3
- deaths (Kunming mice; 1250 mg/kg i.v., day 2): 2
- deaths (Kunming mice; 1250 mg/kg i.v., hours 0-4): 1
- deaths, death rate in total (Kunming mice; 1300 mg/kg i.v.): 7
- deaths (Kunming mice; 1300 mg/kg i.v., day 1): 6
- deaths (Kunming mice; 1300 mg/kg i.v., day 3): 1
- LD50 (Kunming mice; Kunming mice, vena caudalis injection, 14 days observation): 1243.0377 mg/kg
- pathological anatomy (Kunming mice; mice died during the experiment and mice executed after 14 days): no obvious pathological change
- Weight 10 d (S180 tumor; 25 mg/kg i.v. for 9 days): 22.93 ± 1.28 g
- Tumor weight (S180 tumor; 25 mg/kg i.v. for 9 days): 1.42 ± 0.26
- rate of tumor inhibition (S180 tumor; 25 mg/kg i.v. for 9 days): 42%
- Weight 0 d (S180 tumor; 25 mg/kg i.v.): 18.37 ± 1.58 g
- Weight 10 d (S180 tumor; 75 mg/kg i.v. for 9 days): 22.75 ± 2.25 g
- Tumor weight (S180 tumor; 75 mg/kg i.v. for 9 days): 0.82 ± 0.20
- rate of tumor inhibition (S180 tumor; 75 mg/kg i.v. for 9 days): 67%
- Weight 0 d (S180 tumor; 75 mg/kg i.v.): 18.41 ± 1.74 g
- Weight 10 d (S180 tumor; 225 mg/kg i.v. for 9 days): 22.01 ± 3.46 g
- Tumor weight (S180 tumor; 225 mg/kg i.v. for 9 days): 0.69 ± 0.08
- rate of tumor inhibition (S180 tumor; 225 mg/kg i.v. for 9 days): 72%
- Weight 0 d (S180 tumor; 225 mg/kg i.v.): 19.65 ± 1.26 g

Compound: O=P1(N(CCCl)CCCl)NCCCO1 (centres unmarked) [CTX, cyclophosphamide, reference compound]
- Weight 0 d (S180 tumor; 30 mg/kg i.v.): 19.78 ± 1.20 g
- Weight 10 d (S180 tumor; 30 mg/kg×9d i.v.): 19.58 ± 2.54 g
- Tumor weight (S180 tumor; 30 mg/kg×9d i.v.): 0.41 ± 0.17
- rate of tumor inhibition (S180 tumor; 30 mg/kg×9d i.v.): 83%

Compound: COc1ccc(CCc2cc(OC)c(OC)c(OC)c2)cc1O [Erianin]
- solubility in water [1]: < 1 mg/mL
- tumor inhibitory rate (liver cancer of mouse): 50.82%
- growth of human leukemia HL-60 cells [2]: significantly inhibited
- inhibitory effect on the growth of tumor cell strain K256 (tumor cell strain K256): the most active
